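All cell lines were grown in 96-well plates and treated with compound for 48 hours. GI50 is the concentration that inhibits growth by half. At the TGI there is no net growth.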
Columns and labels:
Experiment in all cases: NCI tumour cell line growth inhibition, 48 h
786-0 renal = test system: 786-0 renal
A498 renal = test system: A498 renal
A549 NSCLC = test system: A549 NSCLC
ACHN renal = test system: ACHN renal
BT-549 breast = test system: BT-549 breast
CAKI-1 renal = test system: CAKI-1 renal
CCRF-CEM leukemia = test system: CCRF-CEM leukemia
COLO 205 colon = test system: COLO 205 colon
DU-145 prostate = test system: DU-145 prostate
EKVX NSCLC = test system: EKVX NSCLC
HCC-2998 colon = test system: HCC-2998 colon
HCT-116 colon = test system: HCT-116 colon
HCT-15 colon = test system: HCT-15 colon
HL-60(TB) leukemia = test system: HL-60(TB) leukemia
HOP-62 NSCLC = test system: HOP-62 NSCLC
HOP-92 NSCLC = test system: HOP-92 NSCLC
HS 578T breast = test system: HS 578T breast
HT29 colon = test system: HT29 colon
IGROV1 ovarian = test system: IGROV1 ovarian
K-562 leukemia = test system: K-562 leukemia
KM12 colon = test system: KM12 colon
LOX IMVI melanoma = test system: LOX IMVI melanoma
M14 melanoma = test system: M14 melanoma
MALME-3M melanoma = test system: MALME-3M melanoma
MCF7 breast = test system: MCF7 breast
MDA-MB-231 breast = test system: MDA-MB-231 breast
MDA-MB-435 = test system: MDA-MB-435
MOLT-4 leukemia = test system: MOLT-4 leukemia
NCI-H226 lung = test system: NCI-H226 lung
NCI-H23 lung = test system: NCI-H23 lung
NCI-H460 lung = test system: NCI-H460 lung
NCI-H522 lung = test system: NCI-H522 lung
NCI/ADR-RES ovarian = test system: NCI/ADR-RES ovarian
OVCAR-3 ovarian = test system: OVCAR-3 ovarian
OVCAR-4 ovarian = test system: OVCAR-4 ovarian
OVCAR-5 ovarian = test system: OVCAR-5 ovarian
OVCAR-8 ovarian = test system: OVCAR-8 ovarian
PC-3 prostate = test system: PC-3 prostate
RPMI-8226 leukemia = test system: RPMI-8226 leukemia
RXF 393 renal = test system: RXF 393 renal
SF-268 CNS = test system: SF-268 CNS
SF-295 CNS = test system: SF-295 CNS
SF-539 CNS = test system: SF-539 CNS
SK-MEL-2 melanoma = test system: SK-MEL-2 melanoma
SK-MEL-28 melanoma = test system: SK-MEL-28 melanoma
SK-MEL-5 melanoma = test system: SK-MEL-5 melanoma
SK-OV-3 ovarian = test system: SK-OV-3 ovarian
SN12C renal = test system: SN12C renal
SNB-19 CNS = test system: SNB-19 CNS
SNB-75 CNS = test system: SNB-75 CNS
SR leukemia = test system: SR leukemia
SW-620 colon = test system: SW-620 colon
T-47D breast = test system: T-47D breast
TK-10 renal = test system: TK-10 renal
U251 CNS = test system: U251 CNS
UACC-257 melanoma = test system: UACC-257 melanoma
UACC-62 melanoma = test system: UACC-62 melanoma
UO-31 renal = test system: UO-31 renal

`CN(C)c1ccc(C(=O)c2ccc(N(C)C)c(N)c2)cc1N` showed a GI50 (786-0 renal) of 9.74 µM, a TGI (786-0 renal) of over 91.5 µM and a GI50 (A498 renal) of 1.03 µM. It also gave a TGI (A498 renal) of 18.1 µM, a GI50 (A549 NSCLC) of 8.4 µM and a TGI (A549 NSCLC) of over 100 µM. It also gave a GI50 (ACHN renal) of 14.8 µM, a TGI (ACHN renal) of over 100 µM and a GI50 (BT-549 breast) of 8.02 µM. The TGI (BT-549 breast) was over 88.2 µM, the GI50 (CAKI-1 renal) was 3.02 µM and the TGI (CAKI-1 renal) was over 43.3 µM. For the same molecule, the GI50 (CCRF-CEM leukemia) was 1.93 µM, the TGI (CCRF-CEM leukemia) was over 100 µM and the GI50 (COLO 205 colon) was 2.32 µM. For the same molecule, the TGI (COLO 205 colon) was 18.5 µM, the GI50 (DU-145 prostate) was 5.32 µM and the TGI (DU-145 prostate) was 28.1 µM. It also gave a GI50 (EKVX NSCLC) of 8.87 µM, a TGI (EKVX NSCLC) of over 100 µM and a GI50 (HCC-2998 colon) of 3.9 µM. For the same molecule, the TGI (HCC-2998 colon) was 39.3 µM, the GI50 (HCT-116 colon) was 2.4 µM and the TGI (HCT-116 colon) was 31.3 µM. For the same molecule, the GI50 (HCT-15 colon) was 2.35 µM, the TGI (HCT-15 colon) was over 100 µM and the GI50 (HL-60(TB) leukemia) was 1.29 µM. The TGI (HL-60(TB) leukemia) was 9.08 µM, the GI50 (HOP-62 NSCLC) was 5.91 µM and the TGI (HOP-62 NSCLC) was over 100 µM. The GI50 (HOP-92 NSCLC) was 1.46 µM, the TGI (HOP-92 NSCLC) was over 70.4 µM and the GI50 (HS 578T breast) was 1.75 µM. For the same molecule, the TGI (HS 578T breast) was over 21.2 µM, the GI50 (HT29 colon) was 1.14 µM and the TGI (HT29 colon) was 19.2 µM. The GI50 (IGROV1 ovarian) was 1.86 µM, the TGI (IGROV1 ovarian) was over 42.5 µM and the GI50 (K-562 leukemia) was 0.867 µM. The TGI (K-562 leukemia) was over 86.5 µM, the GI50 (KM12 colon) was 0.785 µM and the TGI (KM12 colon) was 43.4 µM. It also gave a GI50 (LOX IMVI melanoma) of 7.75 µM, a TGI (LOX IMVI melanoma) of over 100 µM and a GI50 (M14 melanoma) of 1.67 µM. It also gave a TGI (M14 melanoma) of 9.74 µM, a TGI (MALME-3M melanoma) of over 100 µM and a GI50 (MCF7 breast) of 0.686 µM. It also gave a TGI (MCF7 breast) of over 59.9 µM, a GI50 (MDA-MB-231 breast) of 5.81 µM and a TGI (MDA-MB-231 breast) of over 77.6 µM. It also gave a GI50 (MDA-MB-435) of 0.422 µM, a TGI (MDA-MB-435) of 1.25 µM and a GI50 (MOLT-4 leukemia) of 2.76 µM. The TGI (MOLT-4 leukemia) was over 57.6 µM, the GI50 (NCI-H226 lung) was 16.8 µM and the TGI (NCI-H226 lung) was over 82.5 µM. For the same molecule, the GI50 (NCI-H23 lung) was 9.75 µM, the TGI (NCI-H23 lung) was over 80.8 µM and the GI50 (NCI-H460 lung) was 2.62 µM. It also gave a TGI (NCI-H460 lung) of 34.5 µM, a GI50 (NCI-H522 lung) of 0.346 µM and a TGI (NCI-H522 lung) of 4.61 µM. For the same molecule, the GI50 (NCI/ADR-RES ovarian) was 1.13 µM, the TGI (NCI/ADR-RES ovarian) was 12.3 µM and the GI50 (OVCAR-3 ovarian) was 1.86 µM. It also gave a TGI (OVCAR-3 ovarian) of 8 µM, a GI50 (OVCAR-4 ovarian) of 6.26 µM and a TGI (OVCAR-4 ovarian) of over 100 µM. The GI50 (OVCAR-5 ovarian) was 15.8 µM, the TGI (OVCAR-5 ovarian) was over 100 µM and the GI50 (OVCAR-8 ovarian) was 8.99 µM. It also gave a TGI (OVCAR-8 ovarian) of over 100 µM, a GI50 (PC-3 prostate) of 5.97 µM and a TGI (PC-3 prostate) of over 100 µM. For the same molecule, the GI50 (RPMI-8226 leukemia) was 1.33 µM, the TGI (RPMI-8226 leukemia) was over 100 µM and the GI50 (RXF 393 renal) was 3.76 µM. For the same molecule, the TGI (RXF 393 renal) was 18.4 µM, the GI50 (SF-268 CNS) was 10.2 µM and the TGI (SF-268 CNS) was over 100 µM. The GI50 (SF-295 CNS) was 2.03 µM, the TGI (SF-295 CNS) was 33.4 µM and the GI50 (SF-539 CNS) was 3.92 µM. The TGI (SF-539 CNS) was 26.5 µM, the GI50 (SK-MEL-2 melanoma) was 4.3 µM and the TGI (SK-MEL-2 melanoma) was over 100 µM. For the same molecule, the GI50 (SK-MEL-28 melanoma) was 12.8 µM, the TGI (SK-MEL-28 melanoma) was over 100 µM and the GI50 (SK-MEL-5 melanoma) was 2.7 µM. For the same molecule, the TGI (SK-MEL-5 melanoma) was 34.2 µM, the GI50 (SK-OV-3 ovarian) was 5.57 µM and the TGI (SK-OV-3 ovarian) was over 45 µM. It also gave a GI50 (SN12C renal) of 6.08 µM, a TGI (SN12C renal) of over 100 µM and a GI50 (SNB-19 CNS) of 16.7 µM. The TGI (SNB-19 CNS) was over 39.3 µM, the GI50 (SNB-75 CNS) was 1.05 µM and the TGI (SNB-75 CNS) was over 23.6 µM. It also gave a GI50 (SR leukemia) of 0.406 µM, a TGI (SR leukemia) of over 16.4 µM and a GI50 (SW-620 colon) of 1.14 µM. The TGI (SW-620 colon) was over 100 µM, the GI50 (T-47D breast) was 4.3 µM and the TGI (T-47D breast) was over 46.1 µM. For the same molecule, the GI50 (TK-10 renal) was 14.5 µM, the TGI (TK-10 renal) was 98.6 µM and the GI50 (U251 CNS) was 2.79 µM. The TGI (U251 CNS) was over 100 µM, the GI50 (UACC-257 melanoma) was over 100 µM and the TGI (UACC-257 melanoma) was over 100 µM. It also gave a GI50 (UACC-62 melanoma) of 2.32 µM, a TGI (UACC-62 melanoma) of over 64.5 µM and a GI50 (UO-31 renal) of 4.02 µM. The TGI (UO-31 renal) was over 67.7 µM.

— PubChem BioAssay (NCI)
